Results published in patent US20240393292A1, “ALLERGY ANTIGEN AND EPITOPE THEREOF” (HOYU CO., LTD., priority 2019, published 2024).

Tested on: IgE antibodies from patients
Assay: Wheat epitope mapping (2): overlapping 10-amino-acid peptide fragments shifted by one amino acid;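 also: key = sequence deemed particularly important within the common 15-residue sequence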
Type: binding, human
Conditions: sequence without X
Outline: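 Residual binding was banded as <30% none, 30–<50% poor, 50–<70% somewhat poor and ≥70% retained, relative to the parent overlapping sequence set to 100%. Values were chemiluminescent IgE signals from patient sera after subtracting secondary-antibody-only controls. The peptides were spot-synthesised 10-mers shifted by one amino acid.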

[1] = serum of patient P50 (child, general immediate type allergy to wheat)
[2] = serum of patient G7 (adult, general immediate type allergy to wheat)
[3] = serum of patient P52 (child, general immediate type allergy to wheat)
[4] = serum of patient P51 (child, general immediate type allergy to wheat)
[5] = serum of patient P53 (child, general immediate type allergy to wheat)
[6] = serum of patient G1 (adult, general immediate type allergy to wheat)

Substance: 1557 (QVPLVQQQQF; REGION 1..10: note = epitope) [compound 1557]
- Rank of partial sequence as epitope binding to IgE antibody [1]: More preferably

Substance: 1558 (PLVQQQQF; REGION 1..8: note = epitope) [compound 1558]
- Rank of partial sequence as epitope binding to IgE antibody [1]: Preferably

Substance: 1560 (QQQFLGQQ; REGION 1..8: note = epitope) [compound 1560]
- Rank of partial sequence as epitope binding to IgE antibody [1]: Key

Substance: 1562 (QVPLVQQQQF; REGION 1..10: note = epitope) [compound 1562]
- Rank of partial sequence as epitope binding to IgE antibody [2]: More preferably

Substance: 1563 (QVPLVQQQQ; REGION 1..9: note = epitope) [compound 1563]
- Rank of partial sequence as epitope binding to IgE antibody [2]: Preferably

Substance: 1565 (QQQQFLGQ; REGION 1..8: note = epitope) [compound 1565]
- Rank of partial sequence as epitope binding to IgE antibody [2]: Key

Substance: 1567 (PFPQTQQ; REGION 1..7: note = epitope) [compound 1567]
- Rank of partial sequence as epitope binding to IgE antibody (serum of patient P3 (WDEIA)): Preferably

Substance: 1568 (PFPQTQ; REGION 1..6: note = epitope) [compound 1568]
- Rank of partial sequence as epitope binding to IgE antibody (serum of patient P3 (WDEIA)): Key

Substance: 1573 (PQQPQQPFP; REGION 1..9: note = epitope) [compound 1573]
- Rank of partial sequence as epitope binding to IgE antibody (serum of patient P16 (WDEIA)): Preferably

Substance: 1575 (QQPQQ; REGION 1..5: note = epitope) [compound 1575]
- Rank of partial sequence as epitope binding to IgE antibody (serum of patient P16 (WDEIA)): Preferably

Substance: 1577 (PFPQTQQ; REGION 1..7: note = epitope) [compound 1577]
- Rank of partial sequence as epitope binding to IgE antibody (serum of patient P16 (WDEIA)): More preferably

Substance: 1580 (QPFPQTQQPQ; REGION 1..10: note = epitope) [compound 1580]
- Rank of partial sequence as epitope binding to IgE antibody (serum of patient P20 (WDEIA)): Further preferably

Substance: 1581 (PFPQTQQPQ; REGION 1..9: note = epitope) [compound 1581]
- Rank of partial sequence as epitope binding to IgE antibody (serum of patient P20 (WDEIA)): More preferably

Substance: 1582 (FPQTQQPQ; REGION 1..8: note = epitope) [compound 1582]
- Rank of partial sequence as epitope binding to IgE antibody (serum of patient P20 (WDEIA)): Preferably

Substance: 1586 (QQPFPQTQQP; REGION 1..10: note = epitope) [compound 1586]
- Rank of partial sequence as epitope binding to IgE antibody (serum of patient P21 (WDEIA)): More preferably

Substance: 1590 (QPFPQTQQPQ; REGION 1..10: note = epitope) [compound 1590]
- Rank of partial sequence as epitope binding to IgE antibody [1]: Preferably

Substance: 1591 (QPFPQTQQP; REGION 1..9: note = epitope) [compound 1591]
- Rank of partial sequence as epitope binding to IgE antibody [1]: Key

Substance: 1594 (QPQQPFP; REGION 1..7: note = epitope) [compound 1594]
- Rank of partial sequence as epitope binding to IgE antibody [3]: Further preferably

Substance: 1595 (QPQQPF; REGION 1..6: note = epitope) [compound 1595]
- Rank of partial sequence as epitope binding to IgE antibody [3]: More preferably

Substance: 1601 (AQLEAIRSL; REGION 1..9: note = epitope) [compound 1601]
- Rank of partial sequence as epitope binding to IgE antibody (serum of patient P3 (WDEIA)): Preferably

Substance: 1605 (AQLEAIRS; REGION 1..8: note = epitope) [compound 1605]
- Rank of partial sequence as epitope binding to IgE antibody (serum of patient P10 (WDEIA)): More preferably

Substance: 1611 (YNPD; REGION 1..4: note = epitope) [compound 1611]
- Rank of partial sequence as epitope binding to IgE antibody (serum of patient P8 (WDEIA)): Key

Substance: 1613 (YNPD; REGION 1..4: note = epitope) [compound 1613]
- Rank of partial sequence as epitope binding to IgE antibody (serum of patient P15 (WDEIA)): Key

Substance: 1614 (YNPD; REGION 1..4: note = epitope) [compound 1614]
- Rank of partial sequence as epitope binding to IgE antibody (serum of patient P16 (WDEIA)): Key

Substance: 1615 (YNPD; REGION 1..4: note = epitope) [compound 1615]
- Rank of partial sequence as epitope binding to IgE antibody (serum of patient P17 (WDEIA)): Key

Substance: 1616 (FVPISG; REGION 1..6: note = epitope) [compound 1616]
- Rank of partial sequence as epitope binding to IgE antibody (serum of patient P17 (WDEIA)): Key

Substance: 1617 (VPFVPISG; REGION 1..8: note = epitope) [compound 1617]
- Rank of partial sequence as epitope binding to IgE antibody (serum of patient P20 (WDEIA)): Preferably

Substance: 1618 (FVPISG; REGION 1..6: note = epitope) [compound 1618]
- Rank of partial sequence as epitope binding to IgE antibody (serum of patient P20 (WDEIA)): Key

Substance: 1619 (FVPISG; REGION 1..6: note = epitope) [compound 1619]
- Rank of partial sequence as epitope binding to IgE antibody (serum of patient P21 (WDEIA)): Key

Substance: 1620 (YNPDKV; REGION 1..6: note = epitope) [compound 1620]
- Rank of partial sequence as epitope binding to IgE antibody (serum of patient P24 (WDEIA)): Preferably

Substance: 1621 (YNPD; REGION 1..4: note = epitope) [compound 1621]
- Rank of partial sequence as epitope binding to IgE antibody (serum of patient P24 (WDEIA)): Key

Substance: 1623 (YNPD; REGION 1..4: note = epitope) [compound 1623]
- Rank of partial sequence as epitope binding to IgE antibody (serum of patient P25 (WDEIA)): Key

Substance: 1624 (FVPISG; REGION 1..6: note = epitope) [compound 1624]
- Rank of partial sequence as epitope binding to IgE antibody (serum of patient P25 (WDEIA)): Key

Substance: 1626 (YNPD; REGION 1..4: note = epitope) [compound 1626]
- Rank of partial sequence as epitope binding to IgE antibody (serum of patient P26 (WDEIA)): Key

Substance: 1628 (YNPDKVP; REGION 1..7: note = epitope) [compound 1628]
- Rank of partial sequence as epitope binding to IgE antibody (serum of patient P27 (WDEIA)): Preferably

Substance: 1629 (YNPD; REGION 1..4: note = epitope) [compound 1629]
- Rank of partial sequence as epitope binding to IgE antibody (serum of patient P27 (WDEIA)): Key

Substance: 1630 (PDKVPFVPIS; REGION 1..10: note = epitope) [compound 1630]
- Rank of partial sequence as epitope binding to IgE antibody (serum of patient P27 (WDEIA)): Key

Substance: 1631 (DKVPFVPISG; REGION 1..10: note = epitope) [compound 1631]
- Rank of partial sequence as epitope binding to IgE antibody (serum of patient P28 (WDEIA)): Key

Substance: 1632 (YNPD; REGION 1..4: note = epitope) [compound 1632]
- Rank of partial sequence as epitope binding to IgE antibody (serum of patient P29 (WDEIA)): Key

Substance: 1633 (YNPD; REGION 1..4: note = epitope) [compound 1633]
- Rank of partial sequence as epitope binding to IgE antibody (serum of patient P31 (WDEIA)): Key

Substance: 1634 (YNPDKVPF; REGION 1..8: note = epitope) [compound 1634]
- Rank of partial sequence as epitope binding to IgE antibody (serum of patient P32 (WDEIA)): Preferably

Substance: 1635 (YNPD; REGION 1..4: note = epitope) [compound 1635]
- Rank of partial sequence as epitope binding to IgE antibody (serum of patient P32 (WDEIA)): Key

Substance: 1637 (YNPDKVPF; REGION 1..8: note = epitope) [compound 1637]
- Rank of partial sequence as epitope binding to IgE antibody (serum of patient P33 (WDEIA)): Key

Substance: 1639 (YNPDKV; REGION 1..6: note = epitope) [compound 1639]
- Rank of partial sequence as epitope binding to IgE antibody (serum of patient P34 (WDEIA)): Key

Substance: 1640 (DKVPFVPISG; REGION 1..10: note = epitope) [compound 1640]
- Rank of partial sequence as epitope binding to IgE antibody (serum of patient P34 (WDEIA)): Key

Substance: 1641 (YNPDKVP; REGION 1..7: note = epitope) [compound 1641]
- Rank of partial sequence as epitope binding to IgE antibody (serum of patient P35 (WDEIA)): Preferably

Substance: 1642 (YNPD; REGION 1..4: note = epitope) [compound 1642]
- Rank of partial sequence as epitope binding to IgE antibody (serum of patient P35 (WDEIA)): Key

Substance: 1643 (PDKVPFVPIS; REGION 1..10: note = epitope) [compound 1643]
- Rank of partial sequence as epitope binding to IgE antibody (serum of patient P35 (WDEIA)): Key

Substance: 1645 (YNPDKVPFV; REGION 1..9: note = epitope) [compound 1645]
- Rank of partial sequence as epitope binding to IgE antibody (serum of patient P36 (WDEIA)): More preferably

Substance: 1646 (YNPDKVPF; REGION 1..8: note = epitope) [compound 1646]
- Rank of partial sequence as epitope binding to IgE antibody (serum of patient P36 (WDEIA)): Preferably

Substance: 1647 (YNPD; REGION 1..4: note = epitope) [compound 1647]
- Rank of partial sequence as epitope binding to IgE antibody (serum of patient P36 (WDEIA)): Key

Substance: 1648 (FVPISG; REGION 1..6: note = epitope) [compound 1648]
- Rank of partial sequence as epitope binding to IgE antibody (serum of patient P36 (WDEIA)): Key

Substance: 1650 (YNPDKVPF; REGION 1..8: note = epitope) [compound 1650]
- Rank of partial sequence as epitope binding to IgE antibody [1]: Preferably

Substance: 1651 (NPDKVP; REGION 1..6: note = epitope) [compound 1651]
- Rank of partial sequence as epitope binding to IgE antibody [1]: Key

Substance: 1653 (YNPDKVPFV; REGION 1..9: note = epitope) [compound 1653]
- Rank of partial sequence as epitope binding to IgE antibody [4]: Preferably

Substance: 1654 (YNPDKVPF; REGION 1..8: note = epitope) [compound 1654]
- Rank of partial sequence as epitope binding to IgE antibody [4]: Key

Substance: 1655 (FVPISG; REGION 1..6: note = epitope) [compound 1655]
- Rank of partial sequence as epitope binding to IgE antibody [4]: Key

Substance: 1656 (NPDKVPFV; REGION 1..8: note = epitope) [compound 1656]
- Rank of partial sequence as epitope binding to IgE antibody [5]: Key

Substance: 1657 (VPFVPISG; REGION 1..8: note = epitope) [compound 1657]
- Rank of partial sequence as epitope binding to IgE antibody [5]: Key

Substance: 1658 (KVPFVPISG; REGION 1..9: note = epitope) [compound 1658]
- Rank of partial sequence as epitope binding to IgE antibody (serum of patient P54 (child, general immediate type allergy to wheat)): Key

Substance: 1659 (YNPDKVPF; REGION 1..8: note = epitope) [compound 1659]
- Rank of partial sequence as epitope binding to IgE antibody [6]: Preferably

Substance: 1660 (YNPDK; REGION 1..5: note = epitope) [compound 1660]
- Rank of partial sequence as epitope binding to IgE antibody [6]: Key

Substance: 1661 (FVPISG; REGION 1..6: note = epitope) [compound 1661]
- Rank of partial sequence as epitope binding to IgE antibody [6]: Key
